Like-named read-outs stand apart in the source and are kept apart here.

The values that follow come from publication PMC4578769, “Development of a Fluorescence-based Trypanosoma cruzi CYP51 Inhibition Assay for Effective Compound Triaging in Drug Discovery Programmes for Chagas Disease” (PLoS Neglected Tropical Diseases, 2015).

Assay [1] concerns the target T1, T. cruzi CYP51 (Tulahuen strain) (Trypanosoma cruzi, UniProt Q7Z1V1).
T1 construct: ompA leader (N); host or cells: E. coli JM109 (membrane fraction, bactosomes)
Description: biochemical. It counts as biochemical. Conditions: for inhibition of T. cruzi CYP51 (in words): known CYP450 inhibitors. As to the method: E. coli membrane fractions containing the T. cruzi CYP51 (Tulahuen strain) (Bactosomes) were provided by Cypex Ltd.
For each concentration of test compound the rate of fluorescence units per minute was calculated as a percentage of the average rate of the solvent only control wells.
The percentage of solvent control values was then plotted against the concentration range. Using the following 4 parameter fit equation, an IC50 value can be determined.
y=Range/1+(x/IC50)^s+Background
With kinetic parameters established, a microtitre-based assay to measure inhibition of recombinantly expressed T. cruzi CYP51 by test compounds was then implemented. […] Incubations containing 37 pmoles/mL of T. cruzi CYP51 in bactosomes, 100 μM BOMCC, 10, 3.3, 1.0, 0.33, 0.1, 0.033 or 0.01 μM test compound (2% v/v solvent) in 50 mM potassium phosphate buffer (pH 7.4), were pre-incubated at 37°C for 5 minutes. Upon addition of NADPH regenerating system (7.8 mg [[…]] glucose-6-phosphate, 1.7 mg [[…]] NADP, 6 units/mL glucose-6-phosphate dehydrogenase in 2% w/v sodium bicarbonate buffer) production of fluorescent metabolite CHC was measured (Exc 410 nm, Em 460 nm) at 1 minute intervals over a 10 minute period. Rates of metabolite production per minute were compared to uninhibited controls and plotted against test compound concentration to obtain an IC50.

The test system of a further assay is T. cruzi. As to conditions: cited from earlier work; for re-emergence of parasitaemia once dosing has been completed: clinical trial, patients.

T1 sequence (Q7Z1V1 whole entry): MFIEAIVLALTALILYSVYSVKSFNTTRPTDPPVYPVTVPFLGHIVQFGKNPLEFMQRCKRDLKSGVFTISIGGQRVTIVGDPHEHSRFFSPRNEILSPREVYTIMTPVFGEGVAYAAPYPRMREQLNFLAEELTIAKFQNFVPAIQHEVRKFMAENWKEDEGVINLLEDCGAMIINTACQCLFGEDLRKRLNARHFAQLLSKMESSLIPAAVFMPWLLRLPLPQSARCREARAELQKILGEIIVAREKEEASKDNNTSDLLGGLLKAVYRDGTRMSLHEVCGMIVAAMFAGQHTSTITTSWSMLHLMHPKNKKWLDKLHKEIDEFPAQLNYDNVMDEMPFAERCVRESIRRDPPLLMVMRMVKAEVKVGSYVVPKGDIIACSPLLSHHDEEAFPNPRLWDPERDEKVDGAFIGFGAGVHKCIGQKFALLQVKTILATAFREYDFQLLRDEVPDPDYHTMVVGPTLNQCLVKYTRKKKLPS

As to `C=C[C@H]1C[N@@]2CC[C@H]1C[C@@H]2[C@@H](O)c1ccnc2ccc(OC)cc12` [Quinidine], in assay [1], the IC50 was greater than 8 µM and the “inhibition of T. cruzi CYP51 (in words)” value is listed as “did not appear to inhibit”.
Turning to `Clc1ccc(COC(Cn2ccnc2)c2ccc(Cl)cc2Cl)c(Cl)c1` (centres unmarked) [Miconazole], half-maximal inhibition in assay [1] (IC50) required 0.057 µM.
Still for that read-out and setting: next, `Cn1cc[nH]c1=S` [Methimazole]: greater than 8 µM.
In the case of `CC(=O)N1CCN(c2ccc(OCC3COC(Cn4ccnc4)(c4ccc(Cl)cc4Cl)O3)cc2)CC1` (centres unmarked) [Ketoconazole], in the assay on T. cruzi, the “curative activity in humans with chronic Chagas disease” value is recorded as “not demonstrated significant curative activity”.
In the case of `Clc1ccccc1CN1CCc2sccc2C1` [Ticlopidine], in assay [1], the IC50 is greater than 8 µM and the “inhibition of T. cruzi CYP51 (in words)” value is recorded as “did not appear to inhibit”.
In the case of `CC[C@@H]([C@H](C)O)n1ncn(-c2ccc(N3CCN(c4ccc(OC[C@@H]5CO[C@@](Cn6cncn6)(c6ccc(F)cc6F)C5)cc4)CC3)cc2)c1=O` [Posaconazole], the “re-emergence of parasitaemia once dosing has been completed” value in the assay with T. cruzi is given as “re-emergence of parasitaemia in two thirds of patients”.
In the case of `C[C@@H](c1nc(-c2ccc(C#N)cc2)cs1)[C@](O)(Cn1cncn1)c1ccc(F)cc1F` [ravuconazole], the “re-emergence of parasitaemia once dosing has been completed” value with T. cruzi is given as “re-emergence of parasitaemia in two thirds of patients”.
Regarding `Nc1ccc(S(=O)(=O)Nc2ccnn2-c2ccccc2)cc1` [Sulphaphenazole], the “inhibition of T. cruzi CYP51 (in words)” value in assay [1] is “did not appear to inhibit”. The IC50 in assay [1] (read-out: IC50 (μM), n = 3, 37 pmoles/mL T. cruzi CYP51 in bactosomes, 100 μM BOMCC, pH 7.4, 37°C, enzyme concentration defines minimum IC50 of approximately 0.02 μM) was greater than 8 µM.
As to `Cc1nc2c([nH]1)c(=O)n(C)c(=O)n2Cc1ccco1` [Furafylline], in assay [1], the IC50 was greater than 8 µM and the “inhibition of T. cruzi CYP51 (in words)” value is reported as “did not appear to inhibit”.
Turning to `CCC(C)n1ncn(-c2ccc(N3CCN(c4ccc(OCC5COC(Cn6cncn6)(c6ccc(Cl)cc6Cl)O5)cc4)CC3)cc2)c1=O` (centres unmarked) [Itraconazole], the “curative activity in humans with chronic Chagas disease” value in the assay with T. cruzi is “not demonstrated significant curative activity”.
